Experimental data taken from article PMC3814616, “BRAF inhibitors suppress apoptosis through off-target inhibition of JNK signaling” (eLife, 2013).

What was measured:
Assay in all cases: Quantitative competitive binding assay (KINOMEscan)
[1] = target: T1, STK39 (Homo sapiens, UniProt Q9UEW8); details: for remaining binding at 0.05 µM: read-out: Percent control (50 nM); for remaining binding at 0.2 µM: read-out: Percent control (200 nM); for remaining binding at 1 µM: read-out: Percent control (1000 nM); for remaining binding at 10 µM: read-out: Percent control (10 μM)
T1 construct: purchased KINOMEscan (DiscoveRx), San Diego, CA

[2] = target: T2, MST1 (STK4) (Homo sapiens, UniProt Q13043); details: for remaining binding at 0.05 µM: read-out: Percent control (50 nM); for remaining binding at 0.2 µM: read-out: Percent control (200 nM); for remaining binding at 1 µM: read-out: Percent control (1000 nM); for remaining binding at 10 µM: read-out: Percent control (10 μM)
T2 construct: purchased KINOMEscan (DiscoveRx), San Diego, CA
T2 sequence (Q13043 1-487): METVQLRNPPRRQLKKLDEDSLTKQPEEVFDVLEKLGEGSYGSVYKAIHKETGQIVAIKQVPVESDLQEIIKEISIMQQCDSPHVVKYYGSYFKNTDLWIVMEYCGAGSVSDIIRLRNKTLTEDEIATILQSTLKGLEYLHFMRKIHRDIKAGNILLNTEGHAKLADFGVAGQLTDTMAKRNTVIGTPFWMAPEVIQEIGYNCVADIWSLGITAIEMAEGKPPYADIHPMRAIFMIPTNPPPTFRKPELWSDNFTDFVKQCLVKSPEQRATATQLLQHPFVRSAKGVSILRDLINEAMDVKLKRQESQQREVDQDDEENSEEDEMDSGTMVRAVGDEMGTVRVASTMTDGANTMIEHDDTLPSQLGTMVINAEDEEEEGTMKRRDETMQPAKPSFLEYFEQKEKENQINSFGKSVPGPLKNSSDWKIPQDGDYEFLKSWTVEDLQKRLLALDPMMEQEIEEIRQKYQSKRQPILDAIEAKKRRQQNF

[3] = target: T3, MAP3K15 (Homo sapiens, UniProt Q6ZN16); details: for remaining binding at 0.05 µM: read-out: Percent control (50 nM); for remaining binding at 0.2 µM: read-out: Percent control (200 nM); for remaining binding at 1 µM: read-out: Percent control (1000 nM); for remaining binding at 10 µM: read-out: Percent control (10 μM)
T3 construct: purchased KINOMEscan (DiscoveRx), San Diego, CA
T3 sequence (Q6ZN16 1-1313): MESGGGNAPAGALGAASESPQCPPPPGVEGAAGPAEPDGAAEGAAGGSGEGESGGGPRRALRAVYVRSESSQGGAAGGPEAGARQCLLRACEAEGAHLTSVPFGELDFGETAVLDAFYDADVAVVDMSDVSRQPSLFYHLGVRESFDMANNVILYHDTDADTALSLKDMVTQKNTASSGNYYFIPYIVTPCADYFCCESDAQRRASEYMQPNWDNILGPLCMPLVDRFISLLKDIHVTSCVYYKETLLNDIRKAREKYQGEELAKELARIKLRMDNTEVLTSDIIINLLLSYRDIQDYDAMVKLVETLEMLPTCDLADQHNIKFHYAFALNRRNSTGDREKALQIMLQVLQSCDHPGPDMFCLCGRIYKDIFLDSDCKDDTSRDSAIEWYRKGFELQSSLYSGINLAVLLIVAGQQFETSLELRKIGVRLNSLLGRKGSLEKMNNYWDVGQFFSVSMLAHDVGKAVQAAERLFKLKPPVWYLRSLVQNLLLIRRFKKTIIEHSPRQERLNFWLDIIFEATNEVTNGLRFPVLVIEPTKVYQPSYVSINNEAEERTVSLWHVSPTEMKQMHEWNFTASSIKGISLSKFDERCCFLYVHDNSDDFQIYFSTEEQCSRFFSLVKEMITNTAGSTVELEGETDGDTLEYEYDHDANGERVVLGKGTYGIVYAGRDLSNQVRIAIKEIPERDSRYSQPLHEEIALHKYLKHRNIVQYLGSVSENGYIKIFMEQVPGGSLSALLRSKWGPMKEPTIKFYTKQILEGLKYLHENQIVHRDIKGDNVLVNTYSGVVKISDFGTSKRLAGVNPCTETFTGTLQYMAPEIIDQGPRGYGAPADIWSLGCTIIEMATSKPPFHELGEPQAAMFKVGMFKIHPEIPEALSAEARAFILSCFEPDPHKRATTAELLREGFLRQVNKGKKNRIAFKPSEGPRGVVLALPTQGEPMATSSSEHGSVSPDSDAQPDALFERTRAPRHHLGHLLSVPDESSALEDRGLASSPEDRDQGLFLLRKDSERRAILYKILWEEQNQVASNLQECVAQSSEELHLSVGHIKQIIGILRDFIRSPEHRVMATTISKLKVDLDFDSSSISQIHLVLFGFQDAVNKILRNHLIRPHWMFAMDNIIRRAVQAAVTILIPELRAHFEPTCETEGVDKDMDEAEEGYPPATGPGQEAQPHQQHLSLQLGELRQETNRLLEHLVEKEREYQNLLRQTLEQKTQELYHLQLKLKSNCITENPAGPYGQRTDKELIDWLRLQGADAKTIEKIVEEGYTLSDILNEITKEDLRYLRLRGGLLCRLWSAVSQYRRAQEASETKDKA

[4] = target: T4, BLK (Homo sapiens, UniProt P51451); details: for IC50: estimated Kd, averaged pointwise estimates, transformed Hill equation, read-out: Calculated estimate of IC50; for remaining binding at 0.05 µM: read-out: Percent control (50 nM); for remaining binding at 0.2 µM: read-out: Percent control (200 nM); for remaining binding at 1 µM: read-out: Percent control (1000 nM); for remaining binding at 10 µM: read-out: Percent control (10 μM)
T4 construct: purchased KINOMEscan (DiscoveRx), San Diego, CA
T4 sequence (P51451 whole entry): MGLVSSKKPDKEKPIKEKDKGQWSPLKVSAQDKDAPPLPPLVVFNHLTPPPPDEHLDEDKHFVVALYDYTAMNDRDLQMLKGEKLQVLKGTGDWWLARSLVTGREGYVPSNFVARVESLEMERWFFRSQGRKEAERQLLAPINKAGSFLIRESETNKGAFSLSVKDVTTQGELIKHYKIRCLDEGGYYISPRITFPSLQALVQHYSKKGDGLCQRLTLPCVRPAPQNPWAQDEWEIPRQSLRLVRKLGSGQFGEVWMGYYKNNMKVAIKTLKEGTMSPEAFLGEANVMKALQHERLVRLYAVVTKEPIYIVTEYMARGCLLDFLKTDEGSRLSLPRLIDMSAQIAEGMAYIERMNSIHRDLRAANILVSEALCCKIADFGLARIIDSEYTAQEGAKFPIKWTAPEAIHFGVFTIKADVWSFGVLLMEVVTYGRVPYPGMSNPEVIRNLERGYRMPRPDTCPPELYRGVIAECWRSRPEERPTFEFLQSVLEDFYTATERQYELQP

[5] = target: T5, MINK (MINK1) (Homo sapiens, UniProt Q8N4C8); details: for remaining binding at 0.05 µM: read-out: Percent control (50 nM); for remaining binding at 0.2 µM: read-out: Percent control (200 nM); for remaining binding at 1 µM: read-out: Percent control (1000 nM); for remaining binding at 10 µM: read-out: Percent control (10 μM)
T5 construct: purchased KINOMEscan (DiscoveRx), San Diego, CA
T5 sequence (Q8N4C8 whole entry): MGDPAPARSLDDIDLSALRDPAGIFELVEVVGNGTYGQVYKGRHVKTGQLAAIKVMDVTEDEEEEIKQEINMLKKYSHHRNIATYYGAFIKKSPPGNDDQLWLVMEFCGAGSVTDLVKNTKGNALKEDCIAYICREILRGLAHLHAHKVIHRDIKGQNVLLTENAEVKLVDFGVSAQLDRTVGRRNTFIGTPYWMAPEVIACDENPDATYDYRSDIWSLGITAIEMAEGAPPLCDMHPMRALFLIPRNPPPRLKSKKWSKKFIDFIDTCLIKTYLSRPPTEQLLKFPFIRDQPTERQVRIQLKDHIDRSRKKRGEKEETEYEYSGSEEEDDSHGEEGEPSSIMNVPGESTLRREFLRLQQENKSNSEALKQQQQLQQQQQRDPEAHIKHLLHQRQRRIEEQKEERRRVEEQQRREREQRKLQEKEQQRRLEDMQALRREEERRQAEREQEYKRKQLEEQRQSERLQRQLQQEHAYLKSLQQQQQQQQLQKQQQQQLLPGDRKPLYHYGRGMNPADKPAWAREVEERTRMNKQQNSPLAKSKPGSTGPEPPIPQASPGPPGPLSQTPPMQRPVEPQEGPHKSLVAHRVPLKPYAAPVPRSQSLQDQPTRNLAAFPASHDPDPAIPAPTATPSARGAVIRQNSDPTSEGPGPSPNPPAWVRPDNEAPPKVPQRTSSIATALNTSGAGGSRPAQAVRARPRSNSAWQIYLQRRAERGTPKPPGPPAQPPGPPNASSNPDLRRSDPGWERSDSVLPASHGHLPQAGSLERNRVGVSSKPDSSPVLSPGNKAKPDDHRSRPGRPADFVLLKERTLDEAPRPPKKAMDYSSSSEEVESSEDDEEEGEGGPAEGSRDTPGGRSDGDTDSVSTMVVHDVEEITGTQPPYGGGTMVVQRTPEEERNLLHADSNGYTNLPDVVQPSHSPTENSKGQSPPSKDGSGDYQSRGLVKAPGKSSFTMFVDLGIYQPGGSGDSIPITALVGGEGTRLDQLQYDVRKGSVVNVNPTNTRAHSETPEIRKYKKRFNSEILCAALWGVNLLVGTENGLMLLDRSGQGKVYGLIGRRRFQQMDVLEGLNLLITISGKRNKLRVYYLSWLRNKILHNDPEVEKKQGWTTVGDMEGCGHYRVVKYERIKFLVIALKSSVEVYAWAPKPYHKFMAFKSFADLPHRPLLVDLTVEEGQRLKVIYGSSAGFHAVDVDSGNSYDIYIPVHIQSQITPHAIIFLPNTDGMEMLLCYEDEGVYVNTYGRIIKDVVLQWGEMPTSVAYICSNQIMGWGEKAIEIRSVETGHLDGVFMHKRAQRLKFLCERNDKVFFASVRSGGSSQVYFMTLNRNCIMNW

[6] = target: T6, MAP3K4 (Homo sapiens, UniProt Q9Y6R4); details: for remaining binding at 0.05 µM: read-out: Percent control (50 nM); for remaining binding at 0.2 µM: read-out: Percent control (200 nM); for remaining binding at 1 µM: read-out: Percent control (1000 nM); for remaining binding at 10 µM: read-out: Percent control (10 μM)
T6 construct: purchased KINOMEscan (DiscoveRx), San Diego, CA
T6 sequence (Q9Y6R4 whole entry): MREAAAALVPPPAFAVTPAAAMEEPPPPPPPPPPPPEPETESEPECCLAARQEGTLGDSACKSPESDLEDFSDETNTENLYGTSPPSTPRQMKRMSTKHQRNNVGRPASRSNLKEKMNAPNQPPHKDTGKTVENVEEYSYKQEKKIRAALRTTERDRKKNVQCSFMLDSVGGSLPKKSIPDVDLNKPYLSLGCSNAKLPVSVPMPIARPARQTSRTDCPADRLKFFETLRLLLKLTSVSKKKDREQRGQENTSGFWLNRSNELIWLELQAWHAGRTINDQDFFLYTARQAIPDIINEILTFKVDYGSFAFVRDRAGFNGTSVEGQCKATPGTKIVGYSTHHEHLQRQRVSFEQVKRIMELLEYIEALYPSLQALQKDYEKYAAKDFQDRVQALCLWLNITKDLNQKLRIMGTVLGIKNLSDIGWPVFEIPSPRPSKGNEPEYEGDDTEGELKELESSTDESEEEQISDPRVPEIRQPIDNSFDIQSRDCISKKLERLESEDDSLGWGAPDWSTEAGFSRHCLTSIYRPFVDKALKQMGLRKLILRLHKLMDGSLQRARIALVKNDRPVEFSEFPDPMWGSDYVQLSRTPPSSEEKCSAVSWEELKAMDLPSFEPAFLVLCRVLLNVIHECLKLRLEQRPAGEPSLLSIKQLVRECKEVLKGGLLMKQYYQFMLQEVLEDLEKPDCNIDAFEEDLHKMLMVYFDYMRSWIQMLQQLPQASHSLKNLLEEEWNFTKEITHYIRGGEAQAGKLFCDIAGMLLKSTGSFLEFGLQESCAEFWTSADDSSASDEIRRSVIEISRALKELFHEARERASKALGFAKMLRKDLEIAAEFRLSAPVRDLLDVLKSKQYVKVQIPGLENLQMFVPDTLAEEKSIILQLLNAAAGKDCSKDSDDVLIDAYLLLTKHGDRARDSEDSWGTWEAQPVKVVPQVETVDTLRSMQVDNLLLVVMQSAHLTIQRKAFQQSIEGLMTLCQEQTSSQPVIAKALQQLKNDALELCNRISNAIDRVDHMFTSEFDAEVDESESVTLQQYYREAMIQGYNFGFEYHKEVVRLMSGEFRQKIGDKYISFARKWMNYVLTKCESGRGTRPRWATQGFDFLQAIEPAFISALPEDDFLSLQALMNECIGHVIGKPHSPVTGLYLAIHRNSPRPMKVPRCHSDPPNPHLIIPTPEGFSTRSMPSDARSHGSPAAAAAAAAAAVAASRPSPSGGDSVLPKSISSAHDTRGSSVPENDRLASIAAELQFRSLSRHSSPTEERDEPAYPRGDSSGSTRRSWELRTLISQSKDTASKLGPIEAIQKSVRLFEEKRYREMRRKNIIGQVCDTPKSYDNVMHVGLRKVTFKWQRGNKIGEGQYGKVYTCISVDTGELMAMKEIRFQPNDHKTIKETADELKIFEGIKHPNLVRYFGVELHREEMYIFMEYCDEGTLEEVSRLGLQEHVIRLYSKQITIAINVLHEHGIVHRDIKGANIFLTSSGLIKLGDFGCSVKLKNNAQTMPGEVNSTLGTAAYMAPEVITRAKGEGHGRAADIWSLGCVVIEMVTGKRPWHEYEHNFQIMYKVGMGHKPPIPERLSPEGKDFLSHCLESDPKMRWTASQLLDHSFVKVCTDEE

[7] = estimated Kd, averaged pointwise estimates, transformed Hill equation, read-out: Calculated estimate of IC50

CCCS(=O)(=O)Nc1ccc(F)c(C(=O)c2c[nH]c3ncc(Cl)cc23)c1F [PLX4720]
remaining binding at 0.05 µM [1]: 100%
remaining binding at 0.2 µM [1]: 100%
remaining binding at 1 µM [1]: 100%
remaining binding at 10 µM [1]: 59%
IC50 [2, 7]: 6.71 µM
remaining binding at 0.05 µM [2]: 100%
remaining binding at 0.2 µM [2]: 93%
remaining binding at 1 µM [2]: 84%
remaining binding at 10 µM [2]: 55%
remaining binding at 0.05 µM [3]: 94%
remaining binding at 0.2 µM [3]: 97%
remaining binding at 1 µM [3]: 91%
remaining binding at 10 µM [3]: 59%
IC50 [4]: 0.447 µM
remaining binding at 0.05 µM [4]: 91%
remaining binding at 0.2 µM [4]: 78%
remaining binding at 1 µM [4]: 32%
remaining binding at 10 µM [4]: 1%
remaining binding at 0.05 µM [5]: 89%
remaining binding at 0.2 µM [5]: 100%
remaining binding at 1 µM [5]: 98%
remaining binding at 10 µM [5]: 55%
remaining binding at 0.05 µM [6]: 100%
remaining binding at 0.2 µM [6]: 100%
remaining binding at 1 µM [6]: 100%
remaining binding at 10 µM [6]: 65%

CCCS(=O)(=O)Nc1ccc(F)c(C(=O)c2c[nH]c3ncc(-c4ccc(Cl)cc4)cc23)c1F [vemurafenib]
remaining binding at 0.05 µM [1]: 100%
remaining binding at 0.2 µM [1]: 100%
remaining binding at 1 µM [1]: 97%
remaining binding at 10 µM [1]: 66%
remaining binding at 0.05 µM [2]: 99%
remaining binding at 0.2 µM [2]: 83%
remaining binding at 1 µM [2]: 51%
remaining binding at 10 µM [2]: 12%
remaining binding at 0.05 µM [3]: 84%
remaining binding at 0.2 µM [3]: 100%
remaining binding at 1 µM [3]: 84%
remaining binding at 10 µM [3]: 91%
IC50 [4]: 0.518 µM
remaining binding at 0.05 µM [4]: 96%
remaining binding at 0.2 µM [4]: 66%
remaining binding at 1 µM [4]: 30%
remaining binding at 10 µM [4]: 0.55%
IC50 [5, 7]: 14.8 µM
remaining binding at 0.05 µM [5]: 100%
remaining binding at 0.2 µM [5]: 100%
remaining binding at 1 µM [5]: 91%
remaining binding at 10 µM [5]: 66%
remaining binding at 0.05 µM [6]: 95%
remaining binding at 0.2 µM [6]: 92%
remaining binding at 1 µM [6]: 87%
remaining binding at 10 µM [6]: 46%
